Test results published in patent US10144713B1, “Bis-cyclic guanidines as antibacterial agents” (UNIVERSITY OF SOUTH FLORIDA, priority 2017, dated 2018).

How the values were obtained:
E. coli (ATCC 25922) = test: MIC against E. coli; assay type: cell-based; conditions: Escherichia coli, ATCC25922; Gram −; 16 h, 37° C.
Description: (§1) Minimum Inhibitory Concentrations (MICs) Against Bacteria.
(§2) The antimicrobial activity of the compounds was tested on the following six bacteria strains: K. pneumoniae (ATCC 13383), P. aeruginosa (ATCC27853), E. coli (ATCC 25922), vancomycin-resistant Enterococcus faecalis(ATCC 700802), Methicillin-resistant S. aureus (MRSA, ATCC 33591), Methicillin-resistant S. epidermidis (MRSE, RP62A). The procedures were followed as reported previously (Hancock et al., Immunobiology 2006, 211, 315-322). Briefly, a single colony of each bacterium was inoculated in 3 mL TSB medium and incubated overnight at 37° C. Then the bacteria culture was diluted at 1:100 and the bacteria were allowed to grow to mid-logarithmic phase. Next, 50 μL of 2-fold serial dilutions of compounds (0.1-25 μg/mL) were added the 96-well plate containing aliquots of 50 μL of bacteria suspension (1×10^6 CFU/mL) in each well. The mixture was incubated at 37° C. for 16 h, and their absorption at 600 nm wavelength was read on a Biotek Synergy HT microtiter plate reader. […] The experiments were repeated at least three times with duplicates each time. HC50 means the concentration causing 50% hemolysis.

[1] = tested on: P. aeruginosa (ATCC27853); test: MIC against P. aeruginosa; assay type: cell-based; conditions: Pseudomonas aeruginosa, ATCC27853; Gram −; 16 h, 37° C.
Description: as §1, §2

[2] = tested on: K. pneumoniae (ATCC 13383); test: MIC against K. pneumoniae; assay type: cell-based; conditions: Klebsiella pneumoniae, ATCC13383; Gram −; 16 h, 37° C.
Description: as §1, §2

[3] = tested on: Methicillin-resistant S. aureus (MRSA, ATCC 33591); test: MIC against MRSA; assay type: cell-based; conditions: Staphylococcus aureus; Gram +; 16 h, 37° C.
Description: as §1, §2

[4] = tested on: Methicillin-resistant S. epidermidis (MRSE, RP62A); test: MIC against MRSE; assay type: cell-based; conditions: Staphylococcus epidermidis, MRSE; Gram +; 16 h, 37° C.
Description: as §1, §2

[5] = tested on: vancomycin-resistant Enterococcus faecalis (ATCC 700802); test: MIC against VRE; assay type: cell-based; conditions: Gram +; 16 h, 37° C.
Description: as §1, §2

[6] = tested on: human red blood cells (hRBCs); test: Hemolytic assay; assay type: cell-based
Description: The freshly drawn, K2EDTA treated human red blood cells (hRBCs) were washed with 1×PBS buffer, and centrifuged at 3500 rpm for 10 min. The step was repeated until the supernatant became clear. The supernatant was removed, and the RBCs were diluted into 5% v/v suspension. 50 μL of the suspension was incubated with 50 μL of compounds of different concentrations at 37° C. for 1 h. The mixture was centrifuged at 3500 rpm for 10 min. Subsequently, to 30 μL of the supernatant 100 μL PBS was added, and the absorbance of the mixture at 540 nm was read on a Biotek Synergy HT plate reader. The positive control was 2% Triton X-100, and the negative control was 1×PBS alone. The hemolysis activity was calculated by the formula % hemolysis=(Abssample−AbsPBS)/(AbsTriton−AbsPBS)×100%. The experiment was repeated at least three times with duplicates each time.

E. coli = test: Time-kill study; assay type: cell-based
Description: The killing activity was monitored for the first 2 h. The concentrations for compound 11 were 2×MIC, 4×MIC, and 8×MIC, respectively.
Time-kill studies were conducted to investigate the bacterial killing kinetics of compounds 11 and 12 by using E. Coli. Briefly, the bacteria […] grew to mid-logarithmic phase in TSB medium, from which the suspension (10^6 CFU/ml) was made. The suspension was incubated with different concentrations of 11 or 12 for 10 min, 30 min, 1 h and 2 h respectively. The mixtures were diluted by 10^2 to 10^4 fold and spread on TSB agar plates. After incubation at 37° C. overnight, the colonies on the plates were counted and plotted against the incubation time. […] Cell colonies were counted in agar plates at 12.5, 25, and 50 μg/mL. Compound 11 at the concentration of 12.5 or 25 μg/mL completely removed all bacteria in 2 hours, and at 50 μg/mL it completely removed bacteria in 0.5 hour. Compound 12 killed E. Coli completely in 0.5 hour at the concentration of 12.5 μg/mL.

S. aureus ATCC 33591 = test: Thigh burden infection model in neutropenic mice; assay type: in vivo, CD-1 female mice; conditions: 5 mg/kg i.v. at 1 and 7 h after infection, thighs harvested at 25 h
Description: Neutropenic mice (n=4 per group) were inoculated in the posterior thigh muscles with S. aureus ATCC 33591 at 1×10^6 CFU per thigh and then treated with compounds 11 and 12 (5 mg/kg per dose) by i.v. bolus injection in the tail vein at 1 and 7 h after infection.
A thigh burden model was employed to evaluate the in vivo anti-infective activity of compounds 11 and 12, in which the thigh muscle of neutropenic mice was inoculated with S. aureus, followed by intravenous (i.v.) administration of corresponding compounds. All protocols and methods associated with animal experiments were approved by University of South Florida (USF) Institutional Animal Care and Use Committee. The in vivo experiment on the mouse model of the thigh burden infection with MRSA was conducted adapted from previously reported protocol. The CD-1 female mice which were 6 to 8 weeks old and around 25 g in weights were used for the study. Neutropenic Mice were induced by injecting cyclophosphamide (150 mg/kg) intraperitoneally twice at 4 and 1 days before bacterial inoculation. One MRSA colony from tryptic soy agar (TSA) cultures was allowed to grow in tryptic soy broth (TSB) overnight at 37° C., then 100 μL culture was withdrawn and diluted with TSB to a total volume of 4 mL, which was subsequently incubated at 37° C. for another 6 h. […] The formed colonies were counted to calculate CFU per thigh.

[7] = tested on: six bacteria strains (K. pneumoniae, P. aeruginosa, E. coli, VRE, MRSA, MRSE); test: Antimicrobial activity on the panel of six bacteria strains; assay type: cell-based
Description: as §1, §2

MIC (E. coli (ATCC 25922)): 1.5 µg/mL
MIC [1]: 6 µg/mL
MIC [2]: 1.5 µg/mL
MIC [3]: 0.33 µg/mL
MIC [4]: 0.75 µg/mL
MIC [5]: 0.75 µg/mL
SMILES: CCCCCCN1C(=N)N(CC(=O)Nc2ccc(NC(=O)CN3C[C@H](Cc4ccccc4)N(CCCCCC)C3=N)cc2)C[C@@H]1Cc1ccccc1 [Compound 11]
selectivity, hemolytic activity against MIC values of MRSA [6]: 769 folds
time to completely remove all bacteria (E. coli; 12.5 μg/mL): 2 h
time to completely remove all bacteria (E. coli; 25 μg/mL): 2 h
time to completely remove all bacteria (E. coli; 50 μg/mL): 0.5 h
decrease in colony-forming unit (CFU) per thigh (S. aureus ATCC 33591): 3 log10 CFU
antibacterial activity against the tested bacteria (in words) [7]: potent and broad-spectrum activity
